Structures can show the parent of a compound that is named as a salt.
System: Passive Cutaneous Anaphylaxis in male mouse
Experiment: Passive cutaneous anaphylaxis (PCA), evans blue in ears
Type: in vivo
Description: Anti-DNP (anti-Dinitrophenyl) of 1.2 ug/mL, […], Sigma was injected by 10 ul into both ears of a male mouse, and 47 hours after antibody Dinitrophenyl injection, the sample is oral-administrated. One hour later (48 hours after antibody-Dinitrophenyl injection), 1.25 mg of DNP-albumin, […], Sigma and a biological salt solution dissolved with 1.25 mg of evans blue, […], Sigma was injected into a tail vein for thereby causing a certain reaction. Neck back bone was broken, and the mouse was dead, and the evans blue color component was measured from both ears. As control groups, promethazine hydrochloride, […], Sigma was used.

## CC(CN1c2ccccc2Sc2ccccc21)N(C)C (stereo not drawn) [Promethazine hydrochloride, promethazine hydrochloride]
Administration amount 2, oral
  Amount of Color: 7.8 ± 0.5 ug/a pair of ears
Administration amount 5, oral
  Amount of Color: 5.4 ± 1.1 ug/a pair of ears
Administration amount 10, oral
  Amount of Color: 1.7 ± 1.0 ug/a pair of ears

Source: patent publication US20090285917A1, “COMPOSITION COMPRISING COMPLEX CRUDE DRUG EXTRACTS SHOWING ANTI-ALLERGIC RHINITIS, ANTI-ATOPIC DERMATITIS AND ANTI-ASTHMA ACTIVITY” (priority 2006, published 2009)
